US20090258873A1, “Novel tetrahydropyridothiophenes” (priority 2005, published 2009)

Experiments:
[1] = test system: RKO (RKOp27) human colon adenocarcinoma cells; assay: Alamar Blue cell viability assay, anti-proliferative/cytotoxic activity on proliferating RKOp27 cells; type: cell-based; conditions: no Ponasterone A, 72 hours incubation, read-out: IC50 RKO p27 uninduced (proliferating)
Method: The anti-proliferative I cytotoxic activity of the compounds described herein, can be tested on subclones of RKO (RKOp27) human colon adenocarcinoma cells (Schmidt et al., Oncogene 19, 2423-2429; 2000) using the Alamar Blue cell viability assay (described in O'Brien et al. Eur J Biochem 267, 5421-5426, 2000). The compounds are dissolved as 20 mM solutions in dimethylsulfoxide (DMSO) and subsequently diluted in semi-logarithmic steps. DMSO dilutions are further diluted 1:100 into Dulbecco's modified Eagle's medium (DMEM) containing 10% fetal calf serum to a final concentration twice as much as the final concentration in the test. RKO subclones are seeded into 96 well flat bottom plates at a density of 5000 cells per well in a volume of 50 μl per well. 24 hours after seeding the 50 μl each of the compound dilutions in DMEM medium are added into each well of the 96 Well plate. Each compound dilution is tested as quadruplicates. Wells containing untreated control cells are filled with 50 μl DMEM medium containing 1% DMSO. The cells are then incubated with the substances for 72 hours at 37° C. in a hunified atmosphere containing 5% carbon dioxide. To determine the viability of the cells, 10 μl of an Alamar Blue solution (Biosource) are added and the fluorescence is measured at an extinction of 544 nm and an emission of 590 nm. For the calculation of the cell viability the emission value from untreated cells is set as 100% viability and the emission rates of treated cells are set in relation to the values of untreated cells. Viabilities are expressed as % values.
The corresponding IC50 values of the compounds for anti-proliferative/cytotoxic activity are determined from the concentration-effect curves.
Representative IC50 values for anti-proliferation/cytotoxicity determined in the mentioned assay follow from the following table A, in which the numbers of the compounds correspond to the numbers of the examples.

[2] = test system: RKO colon adenocarcinoma cells (RKOp27) arrested by ectopic p27Kip1; assay: Alamar Blue cell viability assay on RKOp27 cells arrested by p27Kip1 expression induced with Ponasterone A (cell cycle specific mode of action); type: cell-based; conditions: Homo sapiens, RKOp27 cells arrested by p27Kip1 induced with 10 μM Ponasterone A, 72 hours incubation, read-out: IC50 RKO p27 induced (arrested)
Method: To determine the cell cycle specific mode of action, subclones of RKO colon adenocarcinoma cells (RKOp27 or RKOp21 as described by Schmidt et al. in Oncogene 19, 2423-2429; 2000) are seeded into 96 well flat bottom plates at a density of 15000 cells per well in a volume of 50 μl per well in DMEM growth medium with 10% FCS containing 10 μM Ponasterone A. 24 hours after seeding the 50 μl each of the compound dilutions in DMEM medium are added into each well of the 96 Well plate. Each compound dilution is tested as quadruplicates. Wells containing untreated control cells are filled with 50 μl DMEM medium containing 1% DMSO. The cells are then incubated with the substances for 72 hours at 37° C. in a humidified atmosphere containing 5% carbon dioxide. To determine the viability of the cells, 10 μl of an Alamar Blue solution (Biosource) are added and the fluorescence was measured at an extinction of 544 nm and an emission of 590 nm. For the calculation of the cell viability the emission value from untreated cells is set as 100% viability and the emission rates of treated cells are set in relation to the values of untreated cells. Viabilities are expressed as % values. Viability is compared of proliferating cells grown in the absence of the inducer Ponasterone A, versus viability of cells arrested by the expression of ectopic p27Kip1 induced by Ponasterone A.

Row | Structure (SMILES) | IC50 [1] [nM] | IC50 [2] [nM]
1 | CC(CC(=O)Nc1sc2c(c1C#N)CCN(C(=O)Cc1ccccn1)C2)c1ccccc1 (racemic) [Example 22, (RS)—N-[3-Cyano-6-(2-pyridin-2-yl-ethanoyl)-4,5,6,7-tetrahydro-thieno[2,3-c]pyridin-2-yl]-3-phenyl-butyramide] | ≤ 300 | > 100000
2 | CC(CC(=O)Nc1sc2c(c1C#N)CCN(C(=O)Cc1cccnc1)C2)c1ccccc1 (racemic) [Example 23, (RS)—N-[3-Cyano-6-(2-pyridin-3-yl-ethanoyl)-4,5,6,7-tetrahydro-thieno[2,3-c]pyridin-2-yl]-3-phenyl-butyramide] | ≤ 300 | > 100000
3 | CC(CC(=O)Nc1sc2c(c1C#N)CCN(C(=O)Cc1ccncc1)C2)c1ccccc1 (racemic) [Example 24, (RS)—N-[3-Cyano-6-(2-pyridin-4-yl-ethanoyl)-4,5,6,7-tetrahydro-thieno[2,3-c]pyridin-2-yl]-3-phenyl-butyramide] | ≤ 300 | > 100000
4 | CC(CC(=O)Nc1sc2c(c1C#N)CCN(C(=O)CCc1cccnc1)C2)c1ccccc1 (racemic) [Example 25, (RS)—N-[3-Cyano-6-(3-pyridin-3-yl-propanoyl)-4,5,6,7-tetrahydro-thieno[2,3-c]pyridin-2-yl]-3-phenyl-butyramide] | 300 to 2000 | > 100000
5 | CC(CC(=O)Nc1sc2c(c1C#N)CCN(C(=O)Cn1ccnc1)C2)c1ccccc1 (racemic) [Example 26] | 300 to 2000 | > 100000
6 | CCCC(=O)N1CCc2c(sc(NC(=O)CC(C)c3ccccc3)c2C#N)C1 (racemic) [Example 27, (RS)—N-(6-Butyryl-3-cyano-4,5,6,7-tetrahydro-thieno[2,3-c]pyridin-2-yl)-3-phenyl-butyramide] | 300 to 2000 | > 100000
7 | CC(CC(=O)Nc1sc2c(c1C#N)CCN(C(=O)CCc1ccccn1)C2)c1ccccc1 (racemic) [Example 29, (RS)—N-[3-Cyano-6-(3-pyridin-2-yl-propanoyl)-4,5,6,7-tetrahydro-thieno[2,3-c]pyridin-2-yl]-3-phenyl-butyramide] | 300 to 2000 | > 100000
8 | CC(CC(=O)Nc1sc2c(c1C#N)CCN(C(=O)CCn1ccnc1)C2)c1ccccc1 (racemic) [Example 31] | 300 to 2000 | > 100000
9 | Cc1nccn1CCC(=O)N1CCc2c(sc(NC(=O)CC(C)c3ccccc3)c2C#N)C1 (racemic) [Example 32, (RS)—N-{3-Cyano-6-[3-(2-methyl-imidazol-1-yl)-propanoyl]-4,5,6,7-tetrahydro-thieno[2,3-c]pyridin-2-yl}-3-phenyl-butyramide] | 300 to 2000 | ≥ 10000
10 | CC(CC(=O)Nc1sc2c(c1C#N)CCN(C(=O)CCc1nccn1C)C2)c1ccccc1 (racemic) [Example 34, (RS)—N-{3-Cyano-6-[3-(1-methyl-1H-imidazol-2-yl)-propanoyl]-4,5,6,7-tetrahydro-thieno[2,3-c]pyridin-2-yl}-3-phenyl-butyramide] | ≤ 300 | ≥ 10000
11 | CC(CC(=O)Nc1sc2c(c1C#N)CCN(C(=O)CCc1ccncc1)C2)c1ccccc1 (racemic) [Example 36, (RS)—N-[3-Cyano-6-(3-pyridin-4-yl-propanoyl)-4,5,6,7-tetrahydro-thieno[2,3-c]pyridin-2-yl]-3-phenyl-butyramide] | 300 to 2000 | ≥ 10000
12 | Cc1nccn1CC(=O)N1CCc2c(sc(NC(=O)CC(C)c3ccccc3)c2C#N)C1 (racemic) [Example 37, (RS)—N-{3-Cyano-6-[2-(2-methyl-imidazo-1-yl)-ethanoyl]-4,5,6,7-tetrahydro-thieno[2,3-c]pyridin-2-yl}-3-phenyl-butyramide] | ≤ 300 | ≥ 40000
13 | Cc1cn(CC(=O)N2CCc3c(sc(NC(=O)CC(C)c4ccccc4)c3C#N)C2)cn1 (racemic) [Example 40, (RS)—N-{3-Cyano-6-[2-(4-methyl-imidazol-yl)-ethanoyl]-4,5,6,7-tetrahydro-thieno[2,3-c]pyridin-2-yl}-3-phenyl-butyramide] | 300 to 2000 | ≥ 40000
14 | Cc1cn(CC(=O)N2CCc3c(sc(NC(=O)CC(C)c4ccccc4)c3C#N)C2)c(C)n1 (racemic) [Example 42, (RS)—N-{3-Cyano-6-[2-(2,4-dimethyl-midazol-1-yl)-ethanoy]-4,5,6,7-tetrahydro-thieno[2,3-c]pyridin-2-yl}-3-phenyl-butyramide] | 300 to 2000 | ≥ 10000
15 | N#Cc1c(NC(=O)CCc2ccccc2)sc2c1CCN(C(=O)CCc1cccnc1)C2 [Example 1, N-[3-Cyano-6-(3-pyridn3-yl-propanoyl)-4,5,6,7-tetrahydro-thieno[2,3-c]pyridin-2-yl]-3-phenyl-propionamide] | 300 to 2000 | > 100000
16 | N#Cc1c(NC(=O)CCc2ccccc2)sc2c1CCN(C(=O)Cc1cccnc1)C2 [Example 2, N-[3-Cyano-6-(2-pyridin-3-yl-ethanoyl)-4,5,6,7-tetrahydro-thieno[2,3-]pyridin-2-yl]-3-phenyl-propionamide] | ≤ 300 | > 100000
17 | N#Cc1c(NC(=O)CCc2ccccc2)sc2c1CCN(C(=O)Cc1ccccn1)C2 [Example 3, N-[3-Cyano-(2-pyridin-2-yl-ethanoyl)-4,5,6,7-tetrahydro-thieno[2,3-]pyridin-2-yl]-3-phenyl-propionamide] | ≤ 300 | > 100000
18 | COCC(=O)N1CCc2c(sc(NC(=O)CCc3ccccc3)c2C#N)C1 [Example 4, N-[3-Cyano-6-(2-methoxy-ethanoyl)-4,5,6,7-tetrahydro-thieno[2,3-c]pyridin-2-yl]-3-phenyl-propionamide] | ≤ 300 | > 100000
19 | COCCOCC(=O)N1CCc2c(sc(NC(=O)CCc3ccccc3)c2C#N)C1 [Example 5] | 300 to 2000 | > 100000
20 | CC(=O)OCC(=O)N1CCc2c(sc(NC(=O)CCc3ccccc3)c2C#N)C1 [Example 7, Acetic acid 2-[3-cyano-2-(3-phenyl-propanoylamino)-4,7-dihydro-5H-thieno[2,3-c]pyridin-6-yl]-2-oxo-ethyl ester] | ≤ 300 | > 100000
21 | COCCOCC(=O)N1CCc2c(sc(NC(=O)CCc3ccco3)c2C#N)C1 [Example 9, N-{3-Cyano-6-[2-(2-methoxy-ethoxy)-ethanoyl]-4,5,6,7-tetrahydro-thieno[2,3-c]pyridin-2-yl}-3-furan-2-yl-propionamide] | ≤ 300 | > 100000
22 | N#Cc1c(NC(=O)CCc2ccco2)sc2c1CCN(C(=O)Cc1ccccn1)C2 [Example 10, N-[3-Cyano-6-(2-pyridin-2-yl-ethanoyi)-4,5,6,7-tetrahydro-thieno[2,3-c]pyridin-2-yl]-3-furan-2-yl-propionamide] | ≤ 300 | > 100000
23 | N#Cc1c(NC(=O)CCc2ccco2)sc2c1CCN(C(=O)Cc1cccnc1)C2 [Example 11, N-[3-Cyano-6-(2-pyridin-3-yl-ethanoyl)-4,5,6,7-tetrahydro-thieno[2,3-c]pyridin-2-yl]-3-furan-2-yl-propionamide] | ≤ 300 | > 100000
24 | N#Cc1c(NC(=O)CCc2ccco2)sc2c1CCN(C(=O)CCc1cccnc1)C2 [Example 12, N-[3-Cyano-4-6-(3-pyridin-3-yl-propanoyl)-4,5,6,7-tetrahydro-thieno[2,3-c]pyridin-2-yl]-3-furan-2-yl-propionamide] | ≤ 300 | > 100000
25 | COCC(=O)N1CCc2c(sc(NC(=O)CCc3ccco3)c2C#N)C1 [Example 13, N-[3-Cyano-6-(2-methoxy-ethanoyl)-4,5,6,7-tetrahydro-thieno[2,3-c]pyridin-2-yl]-3-furan-2-yl-propionamide] | ≤ 300 | > 100000
26 | CCCC(=O)N1CCc2c(sc(NC(=O)CCc3ccco3)c2C#N)C1 [Example 14, N-(6-Butyryl-3-cyano-4,5,6,7-tetrahydro-thieno[2,3-c]pyridin-2-yl)-3-furan-2-yl-propionamide] | ≤ 300 | > 100000
